{"source": "patent US20070010671A1", "about": "“Novel quinazoline derivatives and methods of treatment related to the use thereof” (priority 2003, published 2007)"}
{"target": "MCH receptor (Homo sapiens, UniProt Q99705)", "test": "High throughput functional screening FLIPR/FDSS6000: inhibition of MCH-evoked intracellular Ca2+ changes", "assay_type": "cell-based", "conditions": "class by percent of control at 10^−7 M or by IC50; read-out: class", "procedure,_shortened": "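Antagonism was measured as inhibition of calcium responses to 50 nM MCH, monitored 290 s at ex 488/em 530 nm on FLIPR or FDSS6000. Beforehand, cells bearing a constitutively active MCH receptor received Fluo4-AM (4 μM, 1 h, 37 °C) with probenecid, and test compound for 3 min.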", "units": {"IC50": "nM"}}
{"smiles": "CN(C)c1nc(N[C@H]2CC[C@@H](CNC(=O)Nc3ccccc3Cl)CC2)nc2ccccc12", "note": "[Example 1021, N-(2-chlorophenyl)-N′-[(cis-4-{[4-(dimethylamino)quinazolin-2-yl]amino}cyclohexyl)methyl]urea]", "IC50": "50 to 200"}
{"smiles": "CN(C)c1nc(N[C@H]2CC[C@@H](CNC(=O)Nc3cccc(Cl)c3)CC2)nc2ccccc12", "note": "[Example 1022, N-(3-chlorophenyl)-N′-[(cis-4-{[4-(dimethylamino)quinazolin-2-yl]amino}cyclohexyl)methyl]urea]", "IC50": "50 to 200"}
{"smiles": "CN(C)c1nc(N[C@H]2CC[C@@H](CNC(=O)Nc3ccc(Cl)cc3)CC2)nc2ccccc12", "note": "[Example 1023, N-(4-chlorophenyl)-N′-[(cis-4-{[4-(dimethylamino)quinazolin-2-yl]amino}cyclohexyl)methyl]urea]", "IC50": "50 to 200"}
{"smiles": "CN(C)c1nc(N[C@H]2CC[C@@H](CNC(=O)Nc3cc(Cl)cc(Cl)c3)CC2)nc2ccccc12", "note": "[Example 1024, N-(3,5-dichlorophenyl)-N′-[(cis-4-{[4-(dimethylamino)quinazolin-2-yl]amino}cyclohexyl)methyl]urea]", "IC50": "< 50"}
{"smiles": "CN(C)c1nc(N[C@H]2CC[C@@H](CNC(=O)Nc3c(Cl)cccc3Cl)CC2)nc2ccccc12", "note": "[Example 1025, N-(2,6-dichlorophenyl)-N′-[(cis-4-{[4-(dimethylamino)quinazolin-2-yl]amino}cyclohexyl)methyl]urea]", "IC50": "< 50"}
{"smiles": "CN(C)c1nc(N[C@H]2CC[C@@H](CNC(=O)Nc3ccc(Cl)c(Cl)c3)CC2)nc2ccccc12", "note": "[Example 1026, N-(3,4-dichlorophenyl)-N′-[(cis-4-{[4-(dimethylamino)quinazolin-2-yl]amino}cyclohexyl)methyl]urea]", "IC50": "50 to 200"}
{"smiles": "CN(C)c1nc(N[C@H]2CC[C@@H](CNC(=O)Nc3cc(Cl)ccc3Cl)CC2)nc2ccccc12", "note": "[Example 1027, N-(2,5-dichlorophenyl)-N′-[(cis-4-{[4-(dimethylamino)quinazolin-2-yl]amino}cyclohexyl)methyl]urea]", "IC50": "50 to 200"}
{"smiles": "CN(C)c1nc(N[C@H]2CC[C@@H](CNC(=O)Nc3cccc(Cl)c3Cl)CC2)nc2ccccc12", "note": "[Example 1028, N-(2,3-dichlorophenyl)-N′-[(cis-4-{[4-(dimethylamino)quinazolin-2-yl]amino}cyclohexyl)methyl]urea]", "IC50": "< 50"}
{"smiles": "CN(C)c1nc(N[C@H]2CC[C@@H](CNC(=O)Nc3ccc(Cl)cc3Cl)CC2)nc2ccccc12", "note": "[Example 1029, N-(2,4-dichlorophenyl)-N′-[(cis-4-{[4-(dimethylamino)quinazolin-2-yl]amino}cyclohexyl)methyl]urea]", "IC50": "50 to 200"}
{"smiles": "CN(C)c1nc(N[C@H]2CC[C@@H](NC(=O)c3cccnc3Oc3ccccc3F)CC2)nc2ccccc12", "note": "[Example 1030, N-(cis-4-{[4-(dimethylamino)quinazolin-2-yl]amino}cyclohexyl)-2-(2-fluorophenoxy)nicotinamide]", "IC50": "< 50"}
{"smiles": "CN(C)c1nc(N[C@H]2CC[C@@H](NC(=O)c3cccnc3Oc3ccccc3Cl)CC2)nc2ccccc12", "note": "[Example 1031, 2-(2-chlorophenoxy)-N-(cis-4-{[4-(dimethylamino)quinazolin-2-yl]amino}cyclohexyl)nicotinamide]", "IC50": "< 50"}
{"smiles": "CN(C)c1nc(N[C@H]2CC[C@@H](NC(=O)c3cccnc3Oc3ccccc3Br)CC2)nc2ccccc12", "note": "[Example 1032, 2-(2-bromophenoxy)-N-(cis-4-{[4-(dimethylamino)quinazolin-2-yl]amino}cyclohexyl)nicotinamide]", "IC50": "< 50"}
{"smiles": "CN(C)c1nc(N[C@H]2CC[C@@H](NC(=O)c3cccnc3Oc3ccccc3OC(F)(F)F)CC2)nc2ccccc12", "note": "[Example 1033, N-(cis-4-{[4-(dimethylamino)quinazolin-2-yl]amino}cyclohexyl)-2-[2-(trifluoromethoxy)phenoxy]nicotinamide]", "IC50": "< 50"}
{"smiles": "CN(C)c1nc(N[C@H]2CC[C@@H](NC(=O)c3cccnc3Oc3cccc(F)c3)CC2)nc2ccccc12", "note": "[Example 1034, N-(cis-4-{[4-(dimethylamino)quinazolin-2-yl]amino}cyclohexyl)-2-(3-fluorophenoxy)nicotinamide]", "IC50": "< 50"}
{"smiles": "COc1cccc(Oc2ncccc2C(=O)N[C@H]2CC[C@@H](Nc3nc(N(C)C)c4ccccc4n3)CC2)c1", "note": "[Example 1035, N-(cis-4-{[4-(dimethylamino)quinazolin-2-yl]amino}cyclohexyl)-2-(3-methoxyphenoxy)nicotinamide]", "IC50": "< 50"}
{"smiles": "CN(C)c1nc(N[C@H]2CC[C@@H](NC(=O)c3cccnc3Oc3cccc(OC(F)(F)F)c3)CC2)nc2ccccc12", "note": "[Example 1036, N-(cis-4-{[4-(dimethylamino)quinazolin-2-yl]amino}cyclohexyl)-2-[3-(trifluoromethoxy)phenoxy]nicotinamide]", "IC50": "< 50"}
{"smiles": "CN(C)c1nc(N[C@H]2CC[C@@H](NC(=O)c3cccnc3Oc3ccc(OC(F)(F)F)cc3)CC2)nc2ccccc12", "note": "[Example 1037, N-(cis-4-{[4-(dimethylamino)quinazolin-2-yl]amino}cyclohexyl)-2-[4-(trifluoromethoxy)phenoxy]nicotinamide]", "IC50": "< 50"}
{"smiles": "CN(C)c1nc(N[C@H]2CC[C@@H](NC(=O)c3cccnc3Oc3ccc(F)c(F)c3)CC2)nc2ccccc12", "note": "[Example 1038, 2-(3,4-difluorophenoxy)-N-(cis-4-{[4-(dimethylamino)quinazolin-2-yl]amino}cyclohexyl)nicotinamide]", "IC50": "< 50"}
{"smiles": "COc1cc(OC)cc(Oc2ncccc2C(=O)N[C@H]2CC[C@@H](Nc3nc(N(C)C)c4ccccc4n3)CC2)c1", "note": "[Example 1039, 2-(3,5-dimethoxyphenoxy)-N-(cis-4-{[4-(dimethylamino)quinazolin-2-yl]amino}cyclohexyl)nicotinamide]", "IC50": "< 50"}
{"smiles": "COc1cccc(Oc2ncccc2C(=O)N[C@H]2CC[C@@H](Nc3nc(N(C)C)c4ccccc4n3)CC2)c1OC", "note": "[Example 1040, 2-(2,3-dimethoxyphenoxy)-N-(cis-4-{[4-(dimethylamino)quinazolin-2-yl]-amino}cyclohexyl)nicotinamide]", "IC50": "< 50"}
{"smiles": "COc1cc(Oc2ncccc2C(=O)N[C@H]2CC[C@@H](Nc3nc(N(C)C)c4ccccc4n3)CC2)cc(OC)c1OC", "note": "[Example 1041, N-(cis-4-{[4-(dimethylamino)quinazolin-2-yl]amino}cyclohexyl)-2-(3,4,5-trimethoxyphenoxy)nicotinamide]", "IC50": "< 50"}
{"smiles": "CN(C)c1nc(N[C@H]2CC[C@@H](NC(=O)c3cccnc3Oc3ccc(Cl)c(F)c3)CC2)nc2ccccc12", "note": "[Example 1042, 2-(4-chloro-3-fluorophenoxy)-N-(cis-4-{[4-(dimethylamino)quinazolin-2-yl]amino}cyclohexyl)nicotinamide]", "IC50": "< 50"}
{"smiles": "CN(C)c1nc(N[C@H]2CC[C@@H](NC(=O)c3cccnc3Oc3ccc(F)c(Cl)c3)CC2)nc2ccccc12", "note": "[Example 1043, 2-(3-chloro-4-fluorophenoxy)-N-(cis-4-{[4-(dimethylamino)quinazolin-2-yl]amino}cyclohexyl)nicotinamide]", "IC50": "< 50"}
{"smiles": "COc1ccc(CN[C@@H]2CC[C@H](Nc3nc(N(C)C)c4ccccc4n3)C2)c(OC)c1", "note": "[Example 1044, N2-{(1S,3R)-3-[(2,4-dimethoxybenzyl)amino]cyclopentyl}-N4,N4-dimethylquinazoline-2,4-diamine]", "IC50": "> 200"}
{"smiles": "CN(C)c1nc(N[C@H]2CC[C@@H](NCc3ccc(OC(F)(F)F)cc3)C2)nc2ccccc12", "note": "[Example 1047, N4,N4-dimethyl-N2-((1S,3R)-3-{[4-(trifluoromethoxy)benzyl]-amino}cyclopentyl)quinazoline-2,4-diamine]", "IC50": "> 200"}
{"smiles": "CN(C)c1nc(N[C@H]2CC[C@@H](NCc3ccc(Br)cc3OC(F)(F)F)C2)nc2ccccc12", "note": "[Example 1048, N2-((1S,3R)-3-{[4-bromo-2-(trifluoromethoxy)benzyl]-amino}cyclopentyl)-N4,N4-dimethylquinazoline-2,4-diamine]", "IC50": "> 200"}
{"smiles": "CN(C)c1nc(N[C@H]2CC[C@@H](NCc3ccc(F)c(F)c3)C2)nc2ccccc12", "note": "[Example 1049, N2-{(1S,3R)-3-[(3,4-difluorobenzyl)amino]cyclopentyl}-N4,N4-dimethylquinazoline-2,4-diamine]", "IC50": "> 200"}
{"smiles": "CN(C)c1nc(N[C@H]2CC[C@@H](NC(=O)c3ccc(Oc4ccccc4F)nc3)CC2)nc2ccccc12", "note": "[Example 1050, N-(cis-4-{[4-(dimethylamino)quinazolin-2-yl]amino}cyclohexyl)-6-(2-fluorophenoxy)nicotinamide]", "IC50": "< 50"}
{"smiles": "CN(C)c1nc(N[C@H]2CC[C@@H](NC(=O)c3ccc(Oc4ccccc4Cl)nc3)CC2)nc2ccccc12", "note": "[Example 1051, 6-(2-chlorophenoxy)-N-(cis-4-{[4-(dimethylamino)quinazolin-2-yl]amino}cyclohexyl)nicotinamide]", "IC50": "> 200"}
{"smiles": "CN(C)c1nc(N[C@H]2CC[C@@H](NC(=O)c3ccc(Oc4ccccc4Br)nc3)CC2)nc2ccccc12", "note": "[Example 1052, 6-(2-bromophenoxy)-N-(cis-4-{[4-(dimethylamino)quinazolin-2-yl]amino}cyclohexyl)nicotinamide]", "IC50": "> 200"}
{"smiles": "COc1ccccc1Oc1ccc(C(=O)N[C@H]2CC[C@@H](Nc3nc(N(C)C)c4ccccc4n3)CC2)cn1", "note": "[Example 1054, N-(cis-4-{[4-(dimethylamino)quinazolin-2-yl]amino}cyclohexyl)-6-(2-methoxyphenoxy)nicotinamide]", "IC50": "< 50"}
{"smiles": "COc1cccc(Oc2ccc(C(=O)N[C@H]3CC[C@@H](Nc4nc(N(C)C)c5ccccc5n4)CC3)cn2)c1", "note": "[Example 1056, N-(cis-4-{[4-(dimethylamino)quinazolin-2-yl]amino}cyclohexyl)-6-(3-methoxyphenoxy)nicotinamide]", "IC50": "< 50"}
{"smiles": "CN(C)c1nc(N[C@H]2CC[C@@H](NC(=O)c3ccc(Oc4cccc(C(F)(F)F)c4)nc3)CC2)nc2ccccc12", "note": "[Example 1057, N-(cis-4-{[4-(dimethylamino)quinazolin-2-yl]amino}cyclohexyl)-6-[3-(trifluoromethyl)phenoxy]nicotinamide]", "IC50": "< 50"}
